The test system of series [1] is purified mushroom tyrosinase. Put plainly: Allosteric activation of tyrosinase after inhibition by 6BH4. The format is biochemical. The method, then:
To investigate the mechanism by which P9 and P10 exert their stimulatory effect on tyrosinase, 6BH4, an allosteric inhibitor of tyrosinase, was used in an experiment. In a 96-well plate, control wells containing substrate L-tyrosine, purified mushroom tyrosinase, and PBS (pH 6.8) were incubated at 37 degrees Celsius and periodically read at 475 nanometers. After 6 minutes, 20 micromolar 6BH4 was added to all wells except controls. At minute 12, the other triplicate wells received one of the following reagents: 20 micromolar of α-MSH, 100 micromolar of P4, P9, or P10, or 200 micromolar L-tyrosine.
In a 96-well plate the control wells contained substrate L-tyrosine, purified mushroom tyrosinase and PBS (pH 6.8). The plate was incubated at 37 degrees Celsius and periodically read at 475 nanometers. After six minutes, 6BH4 was added to all wells except the control triplicate. At minute 12, the other triplicate wells received one of the following reagents: 10 micromolar of α-MSH, 100 micromolar of P4, P9 or P10, and 200 micromolar L-tyrosine. Data shown are mean±SEM of three independent runs.

In series [2] the test system is B16-F1 mouse melanoma cells. In words: Melanin content measurement (extracellular and intracellular) in B16 cells. The format is cell-based. The conditions noted are these: relative to control. Here is the method:
(§1) B16-F1 mouse melanoma cells (CRL-6323) were obtained and cultured in DMEM containing 10 percent fetal bovine serum, 100 units per milliliter (U/mL) penicillin, 0.1 mg/mL streptomycin, and 0.25 microgram per milliliter (μg/mL) amphotericin B at 37 degrees Celsius in a humidified 95 percent air/5 percent CO2 incubator. Drug treatment began 24 hours after seeding. Cells were harvested 72 hours later and melanin content and tyrosinase activity determined in triplicate.
Extracellular melanin was estimated spectro-photometrically based on its absorption of light at 475 nanometers. After 72 hours treatment period, medium was collected and centrifuged (800×g for 10 minutes) and absorbance read at 475 nanometers. For intracellular melanin content, cells were collected by centrifugation and resuspended in PBS. Aliquots were removed for cell counting and protein estimation. To the remaining suspension, an equal volume of ethanol:ether (1:1 volume to volume) was added in order to remove opaque substances other than melanin which is not soluble in ethanol/ether (see, for example, Oikawa et al., Yale J. Biol. Med., 1973, 46: 500-507). After further centrifugation at 3000×g for 5 minutes, the precipitate was solubilized by treatment with 1 milliliter of 1 N NaOH solution at 80 degrees Celsius for 30 minutes in capped tubes. The absorbance was measured at 475 nanometers and compared to a standard curve prepared from standard dopa-melanin dissolved in the same solution. Melanin content per microgram (μg) cellular protein was calculated and expressed as a percentage of control.
FIGS. 2A-2B show the effect of P9 and P10 on extracellular and intracellular melanin content. […] In a specific embodiment, general materials and methods include 3×10E5 B16 cells per well incubated for 72 hours. Control wells had media only. Other treatments were 600 micromolar L-tyrosine; 50 microgram per milliliter scoparone; 300 micromolar IBMX; 300 micromolar P9; and 300 micromolar P10. Data are expressed as a percentage of the control and are mean±SEM of three separate experiments and analyzed by one-way ANOVA. On the graph, for the bar corresponding to extracellular data (indicated by “*”), P<0.01 versus extracellular control, and for the second bar corresponding to intracellular data (indicated by “**”), P<0.01 versus intracellular control.

Series [3] relates to mushroom tyrosinase. In words: Assay of mushroom tyrosinase activity (L-tyrosine substrate, dopachrome at 475 nm). The format is biochemical. The conditions noted are these: for mushroom tyrosinase activity increase: 1 millimolar. The method, then: The effect of pentapeptides P9 and P10 on mushroom tyrosinase activity was determined in vitro using L-tyrosine as the substrate (see, for example, Piao et al., Chem. Pharm. Bull. (Tokyo), 2002, 50: 309-311). The experiment was conducted in a 96-well flat-bottomed plate. Each well contained 80 microliters of 0.067 molar potassium phosphate buffer (pH 6.8), 40 microliters of 5 milligrams per milliliter L-tyrosine dissolved in 0.067 molar potassium phosphate buffer (pH 6.8), 40 microliters of the different concentrations of P9 or P10 dissolved in the same buffer, and 40 microliters of 480 units per milliliter mushroom tyrosinase solution. The final volume of each well was 200 microliters, containing […] L-tyrosine, 96 units per millileter tyrosinase and varying concentrations of P9 or P10, ranging from 30 micromolar to 1 millimolar. In the control wells, P9 and P10 were substituted with buffer solution and adjusted to a 200 microliters total volume. The assay mixture was incubated at 37 degrees Celsius and optical density (OD), which correlates to the amount of dopachrome produced, was measured periodically at 475 nanometers using a microplate reader (e.g., a Varioskan microplate reader from Thermo Electron Corporation).
FIGS. 4A and 4B show mushroom tyrosinase activity increased by 123±4 percent and 156±4 percent at 1 millimolar P9 and P10, respectively. […] In the control wells, the reaction mix included purified mushroom tyrosinase, PBS (pH 6.8) and substrate L-tyrosine. In the other triplicate wells, P9 or P10 were added at various concentrations. The reaction was incubated at 37 degrees Celsius and the plate was read periodically at 475 nanometers.

Series [4] concerns the target T1, B16 tyrosinase (Mus musculus, UniProt P11344).
T1 construct: host or cells: B16-F1 mouse melanoma cells
T1 sequence (P11344 19-533): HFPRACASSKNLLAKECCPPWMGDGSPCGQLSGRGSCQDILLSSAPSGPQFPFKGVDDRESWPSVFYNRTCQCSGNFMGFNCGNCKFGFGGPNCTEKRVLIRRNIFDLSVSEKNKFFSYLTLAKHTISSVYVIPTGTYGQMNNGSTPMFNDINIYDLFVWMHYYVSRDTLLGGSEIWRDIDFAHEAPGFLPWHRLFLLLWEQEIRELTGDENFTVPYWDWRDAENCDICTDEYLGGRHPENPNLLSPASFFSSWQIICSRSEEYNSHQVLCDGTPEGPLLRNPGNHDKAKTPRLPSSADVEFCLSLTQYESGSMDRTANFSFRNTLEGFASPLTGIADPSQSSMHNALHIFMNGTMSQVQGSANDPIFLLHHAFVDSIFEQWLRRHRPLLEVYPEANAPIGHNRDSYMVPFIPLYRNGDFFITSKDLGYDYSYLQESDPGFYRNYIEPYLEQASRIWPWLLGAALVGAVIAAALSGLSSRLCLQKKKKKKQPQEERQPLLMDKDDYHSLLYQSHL
In words: Assay of B16 tyrosinase activity (DOPA oxidase activity). The format is cell-based. The conditions noted are these: for B16 tyrosinase activity increase: 72 hours incubation, relative to control cells; for EC50: approximate, see FIG. 3, read-out: EC 50 (dose that produces half the maximum response). The method, then: as §1
Tyrosinase activity was assayed as DOPA oxidase activity. This can be according to traditional or modified assaying methods (see, for example, Yang et al., Acta Pharmacol. Sin. 2006, 27: 1467-1473). Cells were washed twice with PBS and lysed with 20 […] (mmol/L) Tris-0.1 percent Triton X-100 (pH 7.5). Tyrosinase activity was analyzed spectrophotometrically by following the oxidation of DOPA to DOPAchrome at 475 nanometers. The reaction mixture containing 100 microliter (μL) of freshly prepared substrate solution [0.1 percent L-DOPA in 0.1 mol/L sodium phosphate (pH 6.8)] and 50 microliters (μL) of enzyme solution was incubated at 37 degrees Celsius. Absorbance change was measured during the first 10 minutes of the reaction while the increase of the absorbance was linear, and corrections for auto-oxidation of L-DOPA in the controls were made. Activities were expressed as a percentage of control cells.
(§2) For the tyrosinase activity, the reaction mixture containing 100 microliter of freshly prepared substrate solution [0.1 percent L-DOPA in 0.1 moles per liter sodium phosphate (pH 6.8)] and 50 microliters of enzyme solution was incubated at 37 degrees Celsius. The absorbance change was measured during the first 10 minutes of the reaction while the increase of the absorbance was linear, and corrections for auto-oxidation of L-DOPA in the controls were made. Activities were expressed as a percentage of the control cells. MTT was performed following the manufacturer's protocol. Data are expressed as a percentage of control and are mean±SEM of three separate experiments.

Series [5] in a line: MTT proliferation and viability assay. It is filed as cell-based. The conditions noted are these: mouse, B16 cells, percentage of control, read-out: proliferation rate. The method, then: Proliferation rates were determined using a general cell proliferation kit (e.g., TACS® MTT Cell Proliferation Kit from R&D systems). Cells were plated at 2.5×10E4 per well in 96-well plates in a humidified atmosphere with 5 percent CO2 at 37 degrees Celsius. Twenty-four hours after plating, test samples were added and cultures were incubated for an additional 72 hours. The remainder of the procedure was performed following the manufacturer's protocol.
as §2

[6] abbreviates: 300 micromolar, 72 hours incubation.
Setting [7] is: 600 micromolar L-tyrosine, 72 hours.
[8] abbreviates: 10 micromolar α-MSH added at minute 12 after 6BH4.

Where no end group is shown, it is not given here.

Turning to `C[C@H](O)[C@H](O)[C@H]1CNc2nc(N)[nH]c(=O)c2N1` [6BH4, (6R)-L-erythro-5,6,7,8-tetrahydrobiopterin], the “inhibition of tyrosinase activity” value in series [1] (20 micromolar 6BH4 added after 6 minutes) is “inhibited completely”.
Consider `CC(C)Cn1c(=O)n(C)c(=O)c2[nH]cnc21` [IBMX, 3-isobutyl-1-methylxanthine], for which, in series [2] (setting [6]), the “extracellular melanin content increase” value came to 187±9% and the “intracellular melanin content increase” value was determined as 67±6%.
For `N[C@@H](Cc1ccc(O)cc1)C(=O)O` [L-tyrosine], in series [1] (200 micromolar L-tyrosine added at minute 12 after 6BH4), the “reversal of 6BH4-dependent tyrosinase inhibition” value is on record as “neither the addition of P4 nor L-tyrosine reversed”. Moreover, in series [2] (setting [7]), the “extracellular melanin content increase” value was found to be 43±5% and the “intracellular melanin content increase” value came out at 7±3%.
As to `COc1cc2ccc(=O)oc2cc1OC` [scoparone, Scoparone], the “intracellular melanin content increase” value in series [2] (50 microgram per milliliter scoparone, 72 hours) was 53±6.9%.
Consider YRSRK [P10, YRSRK], for which, in series [3], the “mushroom tyrosinase activity increase” value amounted to 156±4%. Further, the values for the dopachrome formation increase in series [3] (30 micromolar) and in series [3] (300 micromolar) were 45±3% and 134±3%, respectively. In addition, the “B16 tyrosinase activity increase” value in series [4] (3 millimolar) worked out at 91±6%; in series [4] (300 micromolar), 48±5%. Further, in series [4], the EC50 is around 300 µM. Further, the “intracellular melanin content increase” value in series [2] (setting [6]) amounted to 62±6%. The viability at 72 h, 10 millimolar in series [5] came to 95 ± 2%.
Consider YSSWY [P9, YSSWY], for which the “mushroom tyrosinase activity increase” value in series [3] stood at 123±4%. Further, the dopachrome formation increase in series [3] (30 micromolar) was 28±3%; in series [3] (300 micromolar) it was 100±3%. Besides, the “B16 tyrosinase activity increase” value in series [4] (3 millimolar) is on record as 84±3%; in series [4] (300 micromolar), 38±4%. Also, the EC50 in series [4] is around 300 µM. Moreover, the “extracellular melanin content increase” value in series [2] (setting [6]) amounted to 170%. For the same compound, the “intracellular melanin content increase” value in series [2] (setting [6]) was found to be 47±6%. For the same compound, in series [5], the viability at 72 h, 10 millimolar came out at 94 ± 2%.
Turning to “α-Melanocyte Stimulating Hormone [α-MSH]”, in series [1] (setting [8]), the “reversal of 6BH4-dependent tyrosinase inhibition (reactivation of the enzyme)” value was “reactivated the enzyme” and the “tyrosinase activity after reactivation, compared with control” value is listed as “increased its activity to levels exceeding the control”.

The record behind these values is patent US9567368B2, “Peptide tyrosinase activators” (Escape Therapeutics, Inc., priority 2013, dated 2017).
